# Measurements taken from paper PMC5688156, “The natural product carolacton inhibits folate-dependent C1 metabolism by targeting FolD/MTHFD” (Nature Communications, 2017).
# “And” between values parts separate entries of the source, which are not always exact repeats. Identical values can stand only once.
# Assays:
# ecFolD G8S = target: T1, ecFolD G8S (Escherichia coli, UniProt P24186, G8S); experiment: ecFolD G8S mutant dehydrogenase (DH) enzyme assay; assay type: biochemical, E. coli
# T1 construct: His-tag (TEV-cleavable, vector pHis-TEV); made in house; host or cells: E. coli BL21 (DE3)
# Description: (§1) (6R,S)-5,10-Methylene-5,6,7,8-tetrahydrofolic acid ((6R,S)-5,10-CH2-THF) calcium salt and (6R,S)-5,10-Methenyl-5,6,7,8-tetrahydrofolic acid ((6R,S)-5,10-CH=THF) chloride were purchased from Schircks Laboratories (Bauma, Switzerland) and used as substrates for FolD dehydrogenase and cyclohydrolase enzyme assays, respectively. Only the R-isomer, which accounts for 50% of (6R,S)-5,10-CH2-THF and (6R,S)-5,10-CH=THF, respectively, is used by the enzyme. (6R,S)-5,10-CH2-THF was dissolved in N2-spargeled basic buffer (50 mM Tris-HCl (pH 8.0), 100 mM β-mercaptoethanol) as described by Varshney et al.[25]. (6R,S)-5,10-CH=THF was dissolved in DMSO as a 100 mM stock solution.
# Because FolD is a bifunctional enzyme, dehydrogenase and cyclohydrolase activities were determined for FolD enzyme kinetics, respectively. The dehydrogenase activity of FolD was assayed for its substrate 5,10-CH2-THF and cofactor NADP^+ (in the case of MTHFD2, NAD^+ was used as the cofactor) based on monitoring the formation of 5,10-CH=THF, while the cyclohydrolase activity of FolD was determined for its substrate 5,10-CH=THF by monitoring the hydrolysis of […]. The enzyme kinetics for the dehydrogenase activity of all FolDs except hsMTHFD1_DC were determined at 30 °C in 50 mM Tris-HCl (pH 7.5), 30 mM β-mercaptoethanol. […]
# ecFolD = target: T2, ecFolD (Escherichia coli, UniProt P24186); experiment: ecFolD dehydrogenase (DH) enzyme assay; assay type: biochemical, E. coli; conditions: for Ki: carolacton inhibition on DH activity, from apparent KM
# T2 construct: His-tag (TEV-cleavable, vector pHis-TEV); made in house; host or cells: E. coli BL21 (DE3)
# Description: as §1
# Because FolD is a bifunctional enzyme, dehydrogenase and cyclohydrolase activities were determined for FolD enzyme kinetics, respectively. The dehydrogenase activity of FolD was assayed for its substrate 5,10-CH2-THF and cofactor NADP^+ (in the case of MTHFD2, NAD^+ was used as the cofactor) based on monitoring the formation of 5,10-CH=THF, while the cyclohydrolase activity of FolD was determined for its substrate 5,10-CH=THF by monitoring the hydrolysis of […]. The enzyme kinetics for the dehydrogenase activity of all FolDs except hsMTHFD1_DC were determined at 30 °C in 50 mM Tris-HCl (pH 7.5), 30 mM β-mercaptoethanol. The hsMTHFD1_DC dehydrogenase activity was measured in 25 mM MOPS (pH 7.3), 30 mM β-mercaptoethanol at 30 °C. To measure the enzyme kinetic constants for 5,10-CH2-THF, for example in the case of ecFolD, the NADP concentration was fixed at 1 mM and the concentration of 5,10-CH2-THF varied from 5 to 1500 μM (R-isomer). Similarly, to measure the kinetic constants of ecFolD for NADP^+, the concentration of 5,10-CH2-THF (R-isomer) was fixed at 1 mM and the concentration of NADP^+ varied from 10 to 1500 μM. For different FolDs, the varied concentration range of substrates could be different. […] To monitor the formation of 5,10-CH=THF, the absorbance of the reaction mixture was monitored at 350 nm in micro UV cuvettes (BRAND, Essex, Connecticut, USA). The concentration of 5,10-CH=THF produced in the reaction was determined using an extinction co-efficient of 0.0249 μM^−1 cm^−1. […] The consumption of 5,10-CH=THF was measured by recording the absorbance of the reactions at 355 nm using the TECAN Infinite 200 PRO equipped with a monochromator. […] The inhibition constants (K i) of carolacton on FolD were determined by measuring the apparent K m when adding certain amounts of carolacton to the enzyme reactions. […] To compare the inhibition effects of carolacton between the different FolDs, the half maximal inhibitory concentration (IC50) of carolacton on the same amount of enzyme was determined for FolDs involved in this study. […]
# [1] = read-out: IC80, carolacton inhibition on DH activity
compound,measurement,setting,value
CO[C@H](CC(=O)O)[C@@H](C)C(=O)[C@H](C)/C=C(\C)[C@H]1OC(=O)[C@H](O)[C@H](O)/C=C/[C@H](C)CCC[C@@H]1C [carolacton],IC50,ecFolD G8S,86.5 nM
same,IC80,ecFolD G8S; [1],737 nM
same,IC50,ecFolD,15.5 nM
same,Ki,"ecFolD; Ki (5,10-CH2-THF), competitive vs substrate 5,10-CH2-THF",21 nM and 21.3 nM
same,Ki,"ecFolD; Ki (NADP+), competitive vs cofactor NADP+",11 nM and 10.9 nM
same,IC80,ecFolD; [1],52.2 nM
